According to US7582767B2 (Biovitrum AB (publ.), priority 2005, dated 2009):
Structures can show the parent of a compound that is named as a salt. Where two headings read alike, the source gives them in different places. Each block holds one compound with its values, some of them ahead of it.

Tests used:
[1] = target: T1, 5-HT3 (Homo sapiens, UniProt P46098); assay: 5-HT3 binding (human recombinant, HEK-293 cells)
T1 construct: expressed in transfected cells; host or cells: HEK-293 cells
T1 sequence (P46098 24-478): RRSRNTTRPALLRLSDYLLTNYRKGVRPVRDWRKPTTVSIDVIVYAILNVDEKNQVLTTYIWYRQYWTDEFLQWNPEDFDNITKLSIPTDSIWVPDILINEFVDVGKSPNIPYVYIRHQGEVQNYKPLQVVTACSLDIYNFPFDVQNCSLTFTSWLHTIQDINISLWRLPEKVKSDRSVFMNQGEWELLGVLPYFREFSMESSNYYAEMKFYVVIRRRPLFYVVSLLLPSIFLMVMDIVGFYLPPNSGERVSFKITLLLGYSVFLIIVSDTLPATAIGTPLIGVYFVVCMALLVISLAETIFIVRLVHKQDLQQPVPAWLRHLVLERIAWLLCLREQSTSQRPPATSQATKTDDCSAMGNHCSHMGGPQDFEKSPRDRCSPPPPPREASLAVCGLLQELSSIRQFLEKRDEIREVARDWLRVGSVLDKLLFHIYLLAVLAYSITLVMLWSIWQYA

[2] = target: 5-HT1b (Homo sapiens, UniProt P28222); assay: Selectivity binding 5-HT1b
[3] = target: T2, β2 (Homo sapiens, UniProt P07550); assay: β2 binding (human recombinant, Sf9 cells)
T2 construct: expressed in transfected cells; host or cells: Sf9 cells

[4] = target: T3, β1 (Homo sapiens, UniProt P08588); assay: β1 binding (human recombinant, HEK-293 cells)
T3 construct: expressed in transfected cells; host or cells: HEK-293 cells

[5] = target: T4, human 5-HT6 receptor (Homo sapiens, UniProt P50406); assay: 5-HT6 binding assay ([3H]-LSD, SPA, membranes of transfected HEK293 cells)
T4 construct: expressed in transfected cells; host or cells: HEK293

[6] = target: 5-HT2a (Homo sapiens, UniProt P28223); assay: Selectivity binding 5-HT2a
[7] = target: T5, κ (KOP) (Cavia porcellus, UniProt P41144); assay: κ (KOP) binding (guinea-pig cerebellum)
T5 construct: Guinea-pig cerebellum; from tissue; host or cells: guinea-pig cerebellum

[8] = target: T4, human 5-HT6 receptor; assay: 5-HT6 intrinsic activity assay (inhibition of 5-HT induced increase in cAMP); assay type: cell-based
[9] = target: 5-HT2b (Homo sapiens, UniProt P41595); assay: Selectivity binding 5-HT2b
[10] = target: T6, 5-HT2c (Homo sapiens, UniProt P28335); assay: Selectivity binding 5-HT2c
T6 sequence (P28335 33-458): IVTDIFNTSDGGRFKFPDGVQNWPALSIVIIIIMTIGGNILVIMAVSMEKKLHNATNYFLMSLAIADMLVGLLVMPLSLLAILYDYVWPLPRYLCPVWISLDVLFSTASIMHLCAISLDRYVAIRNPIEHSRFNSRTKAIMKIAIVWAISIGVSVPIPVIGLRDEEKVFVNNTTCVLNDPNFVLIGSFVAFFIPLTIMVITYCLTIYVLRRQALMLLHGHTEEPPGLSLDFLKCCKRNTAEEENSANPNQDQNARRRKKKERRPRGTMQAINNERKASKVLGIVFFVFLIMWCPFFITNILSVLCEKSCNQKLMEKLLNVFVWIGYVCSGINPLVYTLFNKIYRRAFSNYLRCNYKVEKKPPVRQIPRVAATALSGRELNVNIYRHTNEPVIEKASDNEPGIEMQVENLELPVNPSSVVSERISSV

[11] = target: T7, 5-HT1a (Homo sapiens, UniProt P08908); assay: Selectivity binding 5-HT1a
T7 sequence (P08908 1-422): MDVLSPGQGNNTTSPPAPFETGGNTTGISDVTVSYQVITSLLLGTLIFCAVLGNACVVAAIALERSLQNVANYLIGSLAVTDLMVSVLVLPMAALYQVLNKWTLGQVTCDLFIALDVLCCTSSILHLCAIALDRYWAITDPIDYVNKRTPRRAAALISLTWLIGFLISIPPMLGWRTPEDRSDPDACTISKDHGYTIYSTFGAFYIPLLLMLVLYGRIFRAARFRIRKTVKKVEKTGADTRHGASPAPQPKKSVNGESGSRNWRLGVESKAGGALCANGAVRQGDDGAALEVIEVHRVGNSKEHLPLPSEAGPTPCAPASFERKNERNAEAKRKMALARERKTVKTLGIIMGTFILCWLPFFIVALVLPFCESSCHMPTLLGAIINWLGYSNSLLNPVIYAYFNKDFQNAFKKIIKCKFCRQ

[12] = tested on: body weight of DIO rats; assay: Effect on body weight, 28 days oral treatment of DIO rats; assay type: in vivo, male Sprague-Dawley rats; conditions: for Body weight Mean (g) Day 28: 28 days; for Basal Mean (%) Day 28: body weight % of basal; for Body weight gain Mean: day 28-initial; for Reduction % of vehicle / Reduction gram: versus vehicle at day 28
Experimental: (§1) (c) Effect on Body Weight and on Food Intake
(§2) The corresponding solution was used as vehicle. The stability of the solutions were checked upon storage for 14 days. Solutions were formulated twice a week and stored in freezer. The solutions were analysed for the actual concentrations and found similar between the two occasions.
(§3) Hundred (100) male Sprague-Dawley rats were raised on high fat diet at Scanbur BK AB (Sollentuna, Sweden) which upon their arrival to the Biovitrum animal care facility weighed approximately 700 g (17 weeks old). The rats were conditioned and weighed for approximately three weeks after their arrival. The rats were singly stored in standard cages during constant room conditions (temp 22+/−1° C., humidity 40-60%, 12 h light/dark cycle, lights off at 10 am). The rats received the same high fat diet (45 kcal % fat, 4.7 kcal/g; D12451) as they received at Scanbur. The diets were purchased from Research Diets, Inc., New Jersey, USA, consisted of pellets and were stored under dry and cold conditions.
(§4) The high fat fed animals which gained the highest weight were selected. This population weighed 799±60 g. The selected forty-eight (48) rats were randomized and divided into […] treatment groups in order to obtain as homogeneous groups according to body weight as possible. Each treatment group consisted of 12 rats: Group 1—vehicle, Group 2—Example 1-5 mg/kg (11 μmol/kg), Group 3—Example 1-15 mg/kg (33 μmol/kg), Group 4—Example 1-30 mg/kg (66 μmol/kg). Further nine (9) rats were allocated for measurement of compound exposure and pharmacokinetics at each dose group in parallel for the seventh and the twentyninth days. The study was started by baseline measurements for five days in order to accustom the rats to the procedure and to the experimentalists. Test compound was administered orally once a day at 9-10 am in a volume of 2.5 ml/kg i.e.an average of 2 ml per (800 g) rat. Pellets and body were weighed each day in connection with the injections. Water bottles were weighed once a week. The weighings were done with a computer-assisted Mettler Toledo PR 5002 balance. All data were transferred into an Excel template.
(§5) The food and water intake, and body weight data are calculated in gram and % of basal and expressed as mean +/−SD and/or +/−SEM.
(§6) The data of body weight and food intake was statistically analysed by two-way univariate ANOVA with repeated measurements (treatment x time) followed by one-way ANOVA for comparison between treatment groups at selected time points. Clinical chemistry measurements were analysed by one-way ANOVA followed by Dunnetts t-test for test of significance of treatment groups versus vehicle control. A difference between two groups was considered significant if P<0.05. Statistical evaluation was performed using SPSS for Windows.

[13] = tested on: food intake of DIO rats; assay: Effect on food intake, 28 days oral treatment of DIO rats; assay type: in vivo, male Sprague-Dawley rats; conditions: for food intake versus vehicle, Dunnets t-test: first seven days
Experimental: as §1, §2, §3, §4, §5, §6

[14] = target: κ (KOP) (Homo sapiens, UniProt P41145); assay: κ (KOP) EC50 (method not described)
[15] = read-out: 5-HT1b Selectivity Binding (Ki)
[16] = competition with 3 nM [3H] LSD, HEK293 membranes, read-out: 5-HT6 Binding (Ki)
[17] = read-out: 5-HT2a Selectivity Binding (Ki)
[18] = read-out: 5-HT2c Selectivity Binding (Ki)
[19] = read-out: 5-HT1a Selectivity Binding (Ki)

Sequence of 5-HT1b (P28222 whole entry, species assumed): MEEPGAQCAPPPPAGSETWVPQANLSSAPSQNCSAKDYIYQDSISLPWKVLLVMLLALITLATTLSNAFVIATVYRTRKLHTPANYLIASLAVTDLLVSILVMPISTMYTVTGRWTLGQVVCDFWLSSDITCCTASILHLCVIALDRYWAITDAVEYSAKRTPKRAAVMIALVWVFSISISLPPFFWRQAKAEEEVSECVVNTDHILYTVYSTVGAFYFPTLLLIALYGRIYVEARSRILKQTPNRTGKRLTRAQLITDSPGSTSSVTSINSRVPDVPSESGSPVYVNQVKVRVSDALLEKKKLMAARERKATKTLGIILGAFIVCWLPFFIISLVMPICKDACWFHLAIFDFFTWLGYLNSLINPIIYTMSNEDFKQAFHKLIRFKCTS
T4 sequence (P50406 whole entry): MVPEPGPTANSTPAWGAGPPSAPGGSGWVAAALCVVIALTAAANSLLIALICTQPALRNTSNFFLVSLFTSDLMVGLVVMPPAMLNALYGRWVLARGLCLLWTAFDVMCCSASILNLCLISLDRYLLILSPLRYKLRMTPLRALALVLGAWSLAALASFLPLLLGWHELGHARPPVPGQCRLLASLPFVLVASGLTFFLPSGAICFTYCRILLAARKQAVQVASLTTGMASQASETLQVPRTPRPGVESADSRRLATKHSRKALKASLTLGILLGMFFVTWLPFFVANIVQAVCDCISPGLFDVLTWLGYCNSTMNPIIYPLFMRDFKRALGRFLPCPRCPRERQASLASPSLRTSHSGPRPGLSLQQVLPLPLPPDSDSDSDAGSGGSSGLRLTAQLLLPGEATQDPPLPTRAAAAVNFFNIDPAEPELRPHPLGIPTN
T5 sequence (P41144 whole entry): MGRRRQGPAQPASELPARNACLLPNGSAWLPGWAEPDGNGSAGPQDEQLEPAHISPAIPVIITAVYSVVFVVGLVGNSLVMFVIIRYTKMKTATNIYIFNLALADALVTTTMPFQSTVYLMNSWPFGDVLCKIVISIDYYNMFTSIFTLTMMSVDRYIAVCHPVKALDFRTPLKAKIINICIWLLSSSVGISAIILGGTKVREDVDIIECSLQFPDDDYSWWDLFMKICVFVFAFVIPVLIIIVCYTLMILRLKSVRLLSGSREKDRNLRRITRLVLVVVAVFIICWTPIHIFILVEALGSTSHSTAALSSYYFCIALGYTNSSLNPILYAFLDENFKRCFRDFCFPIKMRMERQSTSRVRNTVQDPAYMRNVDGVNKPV
Sequence of 5-HT2a (P28223 whole entry, species assumed): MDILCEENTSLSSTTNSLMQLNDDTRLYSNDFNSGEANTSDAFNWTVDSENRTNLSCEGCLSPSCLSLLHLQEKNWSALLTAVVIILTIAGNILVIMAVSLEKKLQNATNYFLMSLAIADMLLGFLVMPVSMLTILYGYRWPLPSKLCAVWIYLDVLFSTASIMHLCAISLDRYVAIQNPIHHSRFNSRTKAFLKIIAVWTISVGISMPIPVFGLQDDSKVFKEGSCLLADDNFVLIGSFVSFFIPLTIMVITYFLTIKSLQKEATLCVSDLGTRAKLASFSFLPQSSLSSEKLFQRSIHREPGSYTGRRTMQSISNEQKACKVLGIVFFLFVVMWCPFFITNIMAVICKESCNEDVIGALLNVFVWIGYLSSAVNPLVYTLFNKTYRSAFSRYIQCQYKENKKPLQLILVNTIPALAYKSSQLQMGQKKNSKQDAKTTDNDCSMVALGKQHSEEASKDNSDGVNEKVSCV
Sequence of 5-HT2b (P41595 whole entry, species assumed): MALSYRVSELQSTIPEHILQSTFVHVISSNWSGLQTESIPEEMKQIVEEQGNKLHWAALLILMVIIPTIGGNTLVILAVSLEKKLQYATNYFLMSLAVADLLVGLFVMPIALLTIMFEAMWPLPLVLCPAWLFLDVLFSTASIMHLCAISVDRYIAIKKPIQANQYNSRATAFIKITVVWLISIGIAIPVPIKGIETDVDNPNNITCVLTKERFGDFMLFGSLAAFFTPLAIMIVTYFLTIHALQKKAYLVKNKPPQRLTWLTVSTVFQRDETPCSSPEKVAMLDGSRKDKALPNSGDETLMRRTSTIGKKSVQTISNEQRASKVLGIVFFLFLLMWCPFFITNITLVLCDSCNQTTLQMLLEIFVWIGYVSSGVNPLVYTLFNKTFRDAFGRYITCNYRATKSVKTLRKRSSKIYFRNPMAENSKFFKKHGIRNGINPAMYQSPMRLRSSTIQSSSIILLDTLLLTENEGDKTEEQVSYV
T3 sequence (P08588 whole entry): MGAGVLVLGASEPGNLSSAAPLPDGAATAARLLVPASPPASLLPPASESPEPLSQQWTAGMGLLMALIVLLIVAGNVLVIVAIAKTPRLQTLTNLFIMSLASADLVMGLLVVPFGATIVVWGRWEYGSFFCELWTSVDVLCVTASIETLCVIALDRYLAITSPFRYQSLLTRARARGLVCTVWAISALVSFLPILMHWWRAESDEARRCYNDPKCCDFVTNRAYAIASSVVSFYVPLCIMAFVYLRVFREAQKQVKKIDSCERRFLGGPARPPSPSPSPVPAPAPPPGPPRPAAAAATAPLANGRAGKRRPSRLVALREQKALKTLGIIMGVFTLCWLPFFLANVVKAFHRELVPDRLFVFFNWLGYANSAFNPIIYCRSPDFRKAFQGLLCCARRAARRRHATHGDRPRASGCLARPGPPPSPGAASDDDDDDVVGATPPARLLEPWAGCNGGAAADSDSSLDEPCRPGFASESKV
T2 sequence (P07550 whole entry): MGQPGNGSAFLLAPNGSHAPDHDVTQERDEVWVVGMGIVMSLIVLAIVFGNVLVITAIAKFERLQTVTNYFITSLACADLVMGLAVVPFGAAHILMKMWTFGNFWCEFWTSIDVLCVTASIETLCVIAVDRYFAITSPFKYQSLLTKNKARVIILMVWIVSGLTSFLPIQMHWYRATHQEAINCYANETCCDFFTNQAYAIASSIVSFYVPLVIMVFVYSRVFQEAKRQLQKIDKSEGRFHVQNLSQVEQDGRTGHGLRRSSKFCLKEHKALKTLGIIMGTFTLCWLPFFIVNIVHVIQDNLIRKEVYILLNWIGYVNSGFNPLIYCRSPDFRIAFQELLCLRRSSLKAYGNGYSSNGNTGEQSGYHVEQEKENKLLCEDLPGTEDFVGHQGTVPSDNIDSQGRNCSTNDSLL
Sequence of κ (KOP) (Homo sapiens, UniProt P41145) (P41145 whole entry): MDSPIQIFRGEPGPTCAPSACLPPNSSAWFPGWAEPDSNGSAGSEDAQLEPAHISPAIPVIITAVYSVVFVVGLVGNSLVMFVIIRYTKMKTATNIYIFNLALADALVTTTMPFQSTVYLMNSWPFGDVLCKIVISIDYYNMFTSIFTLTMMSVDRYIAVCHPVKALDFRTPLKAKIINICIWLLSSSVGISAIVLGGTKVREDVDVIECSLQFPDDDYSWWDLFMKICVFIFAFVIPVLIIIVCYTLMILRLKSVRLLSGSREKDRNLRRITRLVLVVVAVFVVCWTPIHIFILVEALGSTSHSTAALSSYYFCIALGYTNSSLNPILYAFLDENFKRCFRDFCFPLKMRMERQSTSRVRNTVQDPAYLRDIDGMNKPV

SMILES: Cl.O=S(=O)(Nc1cc(OC2CCNCC2)c2occc2c1)c1ccc(Cl)s1 [Compound A, 5-chlorothiophene-2-sulphonic acid, [7-(piperidin-4-yloxy)-benzofuran-5-yl]amide, hydrochloride]
5-HT3 Binding % inihibition 1 μM [1]: 90%
Ki [2, 15]: 1470 nM
β2 Binding % inihibition 1 μM [3]: 89%
β1 Binding % inihibition 1 μM [4]: 80%
Ki [5, 16]: 9 nM
Ki [6, 17]: > 1000 nM
κ (KOP) Binding % inihibition 1 μM [7]: 71%
Ki [8]: 6 nM
Ki [9]: 356 nM
Ki [10, 18]: > 1000 nM
Ki [11, 19]: 1520 nM

SMILES: O=S(=O)(Nc1cc(OC2CCNCC2)c2occc2c1)c1ccccc1C(F)(F)F [Compound B, N-[7-(4-piperidinyloxy)-1-benzofuran-5-yl]-2-trifluoromethylbenzenesulphonamide]
5-HT3 Binding % inihibition 1 μM [1]: 91%
Ki [2, 15]: 1290 nM
β2 Binding % inihibition 1 μM [3]: 82%
β1 Binding % inihibition 1 μM [4]: 82%
Ki [5, 16]: 4 nM
Ki [6, 17]: > 1000 nM
κ (KOP) Binding % inihibition 1 μM [7]: 83%
Ki [8]: 3 nM
Ki [9]: 545 nM
Ki [10, 18]: > 1000 nM
Ki [11, 19]: > 1000 nM

SMILES: COc1cccc(C)c1NS(=O)(=O)c1cc(OC2CCNCC2)c2occc2c1 [Compound C]
Ki [5]: 26 nM
Ki [6, 17]: 1000 nM
Ki [8]: 51 nM
Ki [9]: 600 nM
Ki [10, 18]: 1250 nM

SMILES: COc1ccc(C)cc1NS(=O)(=O)c1cc(OC2CCCNC2)c2occc2c1 (stereo not shown) [Compound D]
Ki [5]: 14 nM
Ki [6, 17]: 917 nM
Ki [8]: 37 nM
Ki [9]: 1450 nM
Ki [10, 18]: 1370 nM

Ki [5, 16]: 0.18 nM
Ki [6, 17]: 412 nM
Ki [8]: 6 nM
Ki [9]: 19.7 nM
Ki [10, 18]: 158 nM
SMILES: O=S(=O)(Nc1cc(N2CCNCC2)c2occc2c1)c1cccc2ccccc12 [Ex. 148, N-(7-piperazin-1-yl-benzofuran-5-yl)-1-naphthylsulphonamide, hydrochloride]

Ki [1]: 190 nM
Ki ([2]; figure in parentheses after the bound, read-out: 5-HT1b Selectivity Binding (Ki), value in parentheses): 3600 nM
Ki [2, 15]: > 1000 nM
inhibition at 0.05 µM ([5]; at 50 nM, either/or statement of b82, read-out: % inhibition of [3H] LSD (general statement)): ≥ 20%
Ki ([6]; figure in parentheses after the bound, read-out: 5-HT2a Selectivity Binding (Ki), value in parentheses): 5600 nM
Ki [6, 17]: > 1000 nM
Ki [7]: 120 nM
Ki [9]: 440 nM
Ki ([10]; figure in parentheses after the bound, read-out: 5-HT2c Selectivity Binding (Ki), value in parentheses): 2300 nM
Ki [10, 18]: > 1000 nM
Ki ([11]; figure in parentheses after the bound, read-out: 5-HT1a Selectivity Binding (Ki), value in parentheses): 1400 nM
Ki [11, 19]: > 1000 nM
EC50 [14]: 3.78 µM
SMILES: COc1ccc(C)cc1NS(=O)(=O)c1cc(OC2CCNCC2)c2occc2c1 [Example 1]
Body weight Mean (g) Day 28 ([12]; 5 mg/kg p.o. once a day): 845 g
Basal Mean (%) Day 28 ([12]; 5 mg/kg p.o.): 103.5%
Body weight gain Mean ([12]; 5 mg/kg p.o.): 29 g
Reduction % of vehicle ([12]; 5 mg/kg p.o.): 3.9%
Reduction gram ([12]; 5 mg/kg p.o.): −31 gram
Body weight Mean (g) Day 28 ([12]; 15 mg/kg p.o. once a day): 834 g
Basal Mean (%) Day 28 ([12]; 15 mg/kg p.o.): 103.7%
Body weight gain Mean ([12]; 15 mg/kg p.o.): 30 g
Reduction % of vehicle ([12]; 15 mg/kg p.o.): 3.7%
Reduction gram ([12]; 15 mg/kg p.o.): −30 gram
Body weight Mean (g) Day 28 ([12]; 30 mg/kg p.o. once a day): 810 g
Basal Mean (%) Day 28 ([12]; 30 mg/kg p.o.): 100.6%
Body weight gain Mean ([12]; 30 mg/kg p.o.): 4 g
Reduction % of vehicle ([12]; 30 mg/kg p.o.): 6.9%
Reduction gram ([12]; 30 mg/kg p.o.): −57 gram
body weight throughout the whole treatment period ([12]; 5, 15, 30 mg/kg p.o., four weeks, repeated ANOVA P<0.001): decreased significantly
reduction in body weight ([12]; third dose of the sentence, printed as 15 mg/kg): 6.9%
food intake versus vehicle, Dunnets t-test ([13]; 15 mg/kg p.o.): significantly different from vehicle
food intake versus vehicle, Dunnets t-test ([13]; 30 mg/kg p.o.): significantly different from vehicle
food intake, days 8 to 14 and rest of the treatment period ([13]; all dose groups, P<0.076): remained decreased during the rest of the treatment period, although not statistically significant
food intake during the first seven days ([13]; all dose groups, repeated ANOVA P<0.001): decreased food intake significantly
minimum effective dose ([13]; food intake, p.o.): 15 mg/kg

SMILES: CN1C[C@@H](NS(=O)(=O)N(C)C)C[C@@H]2c3cccc4c3c(cn4C)C[C@H]21 [mesulergide]
Ki [5, 16]: 1970 nM
